20 molecules from patent US12187758B2 (ROME Therapeutics, Inc., priority 2022, dated 2025) can be followed below.

Holding throughout (assay type): cell-based
A short description of assay [1]: Mitochondria toxicity assay with PC3 cells, in-cell ELISA COX-1. As to conditions: 5 days treatment. The method, then: (§1) Exemplary compounds were tested for inhibition of expression of mitochondria DNA encoded proteins COX-1 […]. SDH-A (succinate dehydrogenase-A) is a control mitochondria protein encoded by nuclear DNA. Reduction in COX-1 expression indicates off target inhibition of mitochondria DNA synthesis which leads to mitochondrial toxicity. Assay procedures and results are described below.
(§2) PC3 cells were purchased from ATCC and cultured in F-12 Kaighn's modified medium (Hyclone), 10% heat-inactivated fetal bovine serum (Invitrogen), 1% Penicillin-Streptomycin (Invitrogen). PC3 cells were treated with a dose titration of a test compound on 96 well plates for 5 days at 37° C., 5% CO2 in a humidified incubator. The treatment plates are duplicated, one for in-cell ELISA for mitochondria proteins and one for cytotoxicity.
(§3) In-cell ELISA was performed to measure mitochondrial proteins using MitoBiogenesis In-Cell ELISA kit (Abcam) per manufacturer's instruction. The medium was aspirated from the compound treated cells, 100 μl per well of 4% paraformaldehyde (Solarbio) was added and cells were incubated at room temperature for 20 minutes. The cells were washed three times with PBS. 100 μl of 0.5% acetic acid was added per cell, and the cells were incubate at room temperature for 5 minutes. Cells were washed once with PBS. 100 μl per well of Permeabilization Buffer was added, and the cells incubate at room temperature for 30 minutes. The permeabilization buffer was removed and 200 μl per well 2× Blocking Buffer was added and the cells were incubated at room temperature for 2 hours. After removing the Blocking Buffer 100 μl per well of primary antibody to SDH-A or COX-1 was added, and the cells were incubated at 4° C. overnight. The primary antibody solution was removed and cells were washed 3 times with the Wash Buffer. 100 μl per well of AP- and HRP-labelled secondary antibodies was added, and the cells were incubated at room temperature for 1 hour. The cells were then washed 4 times with the Wash Buffer. For SDH-A detection, 100 μl per well AP Development Solution was added, and the cells were incubated at room temperature for 10 minutes. Cells were then read on CLARTO star^plus microplate reader (BMG Labtech) for kinetic readings at 405 nm for 5 minutes. […] The cells were then read on CLARTO star^plus microplate reader (BMG Labtech) for kinetic readings at 600 nm for 15 minutes.
(§4) In the table “A” represents values<1.0 μM; “B” represents values from >1.0 μM to ≤10.0 μM; “C” represents values from >10.0 μM to ≤50.0 μM; “D” represents values from >50.0 μM to ≤100.0 μM; and “E” represents values>100.0 μM.
In general terms: ELISA stands for enzyme-linked immunosorbent assay.

The subject of assay [2] is SDH-A (succinate dehydrogenase-A). As to the kind of experiment: Mitochondria toxicity assay with PC3 cells, in-cell ELISA SDH-A. The note with it: 5 days treatment. As for the experimental part: as §1, §2, §3, §4
Another assay concerns PC3 cells. As to the kind of experiment: Mitochondria toxicity assay with PC3 cells, cytotoxicity (Cell Titer Glo). The note with it: Homo sapiens, PC-3, 120 h, 5 days treatment. As for the experimental part: as §2
For the cytotoxicity assay, the medium from the cell viability plate was removed, 50 μL per well of Cell Titer Glo (Promega, G9683) was added. Then the cells incubated for 30 minutes at room temperature. Luminescence was read by Envision (PerkinElmer 2105).
as §4
On the technique in general: Cellular ATP, detected with luciferase, serves as a proxy for viable cell number.

A value given as a limit tells only on which side of the number the result lay.

`Nc1nc(F)nc2c1ncn2[C@H]1C[C@H](O)C(CO)(CO)O1` [Compound 10, ((3S,5R)-5-(6-amino-2-fluoro-9H-purin-9-yl)-3-hydroxytetrahydrofuran-2,2-diyl) dimethanol]: the figures for the IC50 (in assay [1]; in assay [2]; with PC3 cells) were 1 to 10 µM, 1 to 10 µM and 10 to 50 µM, respectively.
`Nc1nc2c(ncn2[C@@H]2O[C@@](CO)(CCl)[C@@H](O)[C@@H]2O)c(=O)[nH]1` [Compound 94, 2-amino-9-[(2R,3S,4S,5R)-5-(chloromethyl)-3,4-dihydroxy-5-(hydroxymethyl)oxolan-2-yl]-1H-purin-6-one]: the IC50 (in assay [1]; in assay [2]; in the assay on PC3 cells) was greater than 100 µM in each case.
For `Nc1nc(=O)n([C@H]2C[C@H](O)[C@](CO)(CCl)O2)cc1C(F)(F)F` [Compound 71, 4-amino-1-((2R,4S,5R)-5-(chloromethyl)-4-hydroxy-5-(hydroxymethyl)tetrahydrofuran-2-yl)-5-(trifluoromethyl)pyrimidin-2(1H)-one], the IC50 (in assay [1]; in assay [2]; in the assay with PC3 cells) was greater than 100 µM in each case.
Regarding `Nc1ncnn2c([C@H]3C[C@H](O)[C@](CO)(CF)O3)ccc12` [Compound 79, (2R,3S,5R)-5-(4-aminopyrrolo[2,1-f] [1,2,4]triazin-7-yl)-2-(fluoromethyl)-2-(hydroxymethyl) tetrahydrofuran-3-ol], the IC50 (in assay [1]; in assay [2]; with PC3 cells) was greater than 100 µM each time.
Consider `Nc1ccn([C@H]2C[C@@H](O)[C@](CO)(CCl)O2)c(=O)n1` [Compound 59, 4-amino-1-[(2R,4R,5R)-5-(chloromethyl)-4-hydroxy-5-(hydroxymethyl)oxolan-2-yl] pyrimidin-2-one], for which the IC50 (in assay [1]; in assay [2]; in the assay on PC3 cells) was greater than 100 µM throughout.
For `Nc1nc2c(ncn2[C@@H]2O[C@@](CO)(CF)[C@@H](O)[C@@H]2F)c(=O)[nH]1` [Compound 83, 2-amino-9-((2R,3S,4R,5R)-3-fluoro-5-(fluoromethyl)-4-hydroxy-5-(hydroxymethyl)tetrahydrofuran-2-yl)-1,9-dihydro-6H-purin-6-one], the IC50 (in assay [1]; in assay [2]; with PC3 cells) was 10 to 50 µM in each case.
As to `NC(=O)[C@]1(CO)O[C@@H](n2cc(F)c(N)nc2=O)[C@@H](F)[C@@H]1O` [Compound 138, (2R,3R,4S,5R)-5-(4-amino-5-fluoro-2-oxopyrimidin-1-yl)-4-fluoro-3-hydroxy-2-(hydroxymethyl) oxolane-2-carboxamide], the IC50 (in assay [1]; in assay [2]; in the assay on PC3 cells) was greater than 100 µM each time.
For the molecule `Cc1cn([C@H]2C[C@H](O)[C@](CO)(N=[N+]=[N-])O2)c(=O)[nH]c1=O` [Compound 30, 1-((2R,4S,5R)-5-azido-4-hydroxy-5-(hydroxymethyl)tetrahydrofuran-2-yl)-5-methylpyrimidine-2,4(1H,3H)-dione], the IC50 (in assay [1]; in assay [2]; with PC3 cells) was greater than 100 µM each time.
Turning to `CSC[C@]1(CO)O[C@@H](n2cc(F)c(N)nc2=O)[C@@H](F)[C@@H]1O` [Compound 135, 4-amino-5-fluoro-1-[(2R,3S,4R,5R)-3-fluoro-4-hydroxy-5-(hydroxymethyl)-5-[(methylsulfanyl)methyl]oxolan-2-yl] pyrimidin-2-one], the figures for the IC50 (in assay [1]; in assay [2]; with PC3 cells) were 1 to 10 µM, 10 to 50 µM and 10 to 50 µM, respectively.
With `N#C[C@]1(CO)O[C@@H](n2cc(F)c(N)nc2=O)[C@@H](F)[C@@H]1O` [Compound 166], the IC50 (in assay [1]; in assay [2]; in the assay on PC3 cells) was greater than 100 µM in each case.
On to `NC[C@]1(CO)O[C@@H](n2cc(F)c(N)nc2=O)[C@@H](F)[C@@H]1O` [Compound 139, 4-amino-1-[(2R,3S,4R,5R)-5-(aminomethyl)-3-fluoro-4-hydroxy-5-(hydroxymethyl)oxolan-2-yl]-5-fluoropyrimidin-2-one], for which the IC50 (in assay [1]; in assay [2]; with PC3 cells) was greater than 100 µM in each case.
Turning to `[N-]=[N+]=N[C@]1(CO)O[C@@H](n2ccc(N)nc2=O)C[C@@H]1O` [Compound 49, 4-amino-1-((2R,4S,5R)-5-azido-4-hydroxy-5-(hydroxymethyl)tetrahydro-furan-2-yl)pyrimidin-2(1H)-one], the IC50 (in assay [1]; in assay [2]; in the assay on PC3 cells) was less than 1 µM in each case.
As to `CC(O)[C@]1(CO)O[C@@H](n2cc(F)c(=O)[nH]c2=O)[C@@H](F)[C@@H]1O` (stereo partly drawn) [Compound 162, 5-fluoro-1-[(2R,3S,4R,5S)-3-fluoro-4-hydroxy-5-(1-hydroxyethyl)-5-(hydroxymethyl)oxolan-2-yl]-3H-pyrimidine-2,4-dione], the IC50 (in assay [1]; in assay [2]; in the assay with PC3 cells) was greater than 100 µM each time.
With `Nc1nc(=O)n([C@@H]2O[C@@](CO)(C(F)(F)F)[C@@H](O)[C@@H]2O)cc1F` [Compound 95, 4-amino-1-((2R,3S,4S,5R)-3,4-dihydroxy-5-(hydroxymethyl)-5-(trifluoromethyl)tetrahydrofuran-2-yl)-5-fluoropyrimidin-2(1H)-one], the IC50 (in assay [1]; in assay [2]; with PC3 cells) was greater than 100 µM throughout.
Take `Nc1nc(=O)n([C@@H]2O[C@@](CO)(CI)[C@@H](O)[C@@H]2F)cc1F` [Compound 129, 4-amino-5-fluoro-1-((2R,3S,4R,5R)-3-fluoro-4-hydroxy-5-(hydroxymethyl)-5-(iodomethyl)tetrahydrofuran-2-yl)pyrimidin-2(1H)-one]: the IC50 (in assay [1]; in assay [2]; in the assay with PC3 cells) was greater than 100 µM in each case.
`CO[C@H]1C[C@H](n2ccc(N)nc2=O)O[C@@]1(CO)CCl` [Compound 54, 4-amino-1-[(2R,4S,5R)-5-(chloromethyl)-5-(hydroxymethyl)-4-methoxyoxolan-2-yl]-3,4-dihydropyrimidin-2-one]: the IC50 (in assay [1]; in assay [2]; with PC3 cells) was greater than 100 µM each time.
Regarding `O=c1[nH]c(=O)n([C@@H]2O[C@@](CO)(CCl)[C@@H](O)[C@@H]2F)cc1F` [Compound 163, 1-[(2R,3S,4R,5R)-5-(chloromethyl)-3-fluoro-4-hydroxy-5-(hydroxymethyl)oxolan-2-yl]-5-fluoro-3H-pyrimidine-2,4-dione], the IC50 (in assay [1]; in assay [2]; in the assay on PC3 cells) was greater than 100 µM throughout.
With `Nc1nc(=O)n([C@@H]2O[C@](/C=C\Cl)(CO)[C@@H](O)[C@@H]2F)cc1F` [Compound 132, 4-amino-1-[(2R,3S,4R,5R)-5-(2-chloroethenyl)-3-fluoro-4-hydroxy-5(Z)-(hydroxymethyl)oxolan-2-yl]-5-fluoropyrimidin-2-one], the half-maximal inhibitory concentration (IC50) (in assay [1]; in assay [2]; with PC3 cells) was greater than 100 µM in each case.
For `CO[C@]1(CO)O[C@@H](n2ccc(N)nc2=O)C[C@@H]1O` [Compound 48, 4-amino-1-((2R,4S,5R)-4-hydroxy-5-(hydroxymethyl)-5-methoxytetrahydrofuran-2-yl)pyrimidin-2(1H)-one], the half-inhibitory concentration (IC50) (as a rule, the concentration that gives 50% inhibition) in assay [1] was in the range of 1 to 10 µM; in assay [2] it was 1 to 10 µM; in the assay with PC3 cells, 10 to 50 µM.
Regarding `Nc1nc(F)nc2c1ncn2[C@@H]1O[C@@](CO)(CF)[C@@H](O)[C@@H]1F` [Compound 84], the IC50 lay in the range of 10 to 50 µM in assay [1], 50 to 100 µM in assay [2] and 10 to 50 µM with PC3 cells.
